The numbers were not newly measured in patent US20220235393A1, “SURROGATE VIRUS ASSAYS AND METHODS” (priority 2019, published 2022), which cites them from elsewhere.

In the data set the test system is ASFV.

Consider `O=C(O)CC(O)(CC(=O)O)C(=O)O` [citric acid], for which the “inactivation of virus applied to wood surfaces” value is “completely inactivated”.
